In publication PMC8481536, “Wells–Dawson phosphotungstates as mushroom tyrosinase inhibitors: a speciation study” (Scientific Reports, 2021):

Test: Charge density (q/m, charges per addenda metal ion) of POT anions
Format: physicochemical
Details: for Charge density q/m of the anion: Wells–Dawson POTs and their products; for Charge density q/m of POT product Hx[α2-P2W17O61](10−x)−, x = 3 / Charge density q/m of POT product Hx[α2-P2W17O61](10−x)−, x = 4: product formed from the educt at pH 6.8
Text: The charge density of POMs, expressed in number of charges (q) per addenda metal ions (m), is a criterion to characterize the chaotropic behavior of POMs (Table S6)[49]–[53]. […] The activity of [P2W18]^6−, [P2W17]^10− and [P2W15]^12− solutions correlates with the amount of the dominant monolacunary anion [α2-P^V2W^VI17O61]^10− in Na-citrate buffer at pH 6.8 (Fig. 3, Scheme S1). For the unprotonated form of the active monolacunary Wells–Dawson anion [α2-P^V2W^VI17O61]^10− the q/m ratio is 0.59 (Table 2), however, the protonation of this anion in neutral solutions has previously been shown by electrochemical analysis in combination with theoretical calculations[47],[55]. For POMs the proton affinity difference between the terminal and bridging oxygen is around 11 kcal mol^−1[56], proving that the four oxygen atoms surrounding the lacuna are much more basic than the bridging and terminal O atoms (Fig. 1B), and thus prone to protonation. Electrospray-ionization mass spectrometry (ESI–MS) has already been successfully used for the protonation states assignment of Wells–Dawson POTs containing different heteroatoms. Consequently, ESI–MS has been applied to investigate the protonation state of monolacunary [α2-P^V2W^VI17O61]^10−. When recording ESI–MS for POMs in Na-citrate buffer, the relative intensity of citrate anion signals is almost 100%, suppressing POM signals. […] The spectra recorded in both solvents show signals for NaH4[α2-P^V2W^VI17O61]^5- at 838.0 and NaKH3[α2-P^V2W^VI17O61]^5- at 845.6 m/z, while species with lower protonation states have not been detected (Fig. S19). Therefore, the monolacunary anion [α2-P^V2W^VI17O61]^10− is present as the three-fold protonated anion H3[α2-P^V2W^VI17O61]^7- with a charge density of 0.41 and the four-fold protonated anion H4[α2-P^V2W^VI17O61]^6− with a charge density of 0.35. The predominant species in [P2W12]^12− is the wheel-shaped [P^V8W^VI48O184]^40− (23%), which can be protonated to H16[P^V8W^VI48O184]^24−[58] q/m = 0.5. Due to the compositional complexity of the hexalacunary anion it is impossible to accurately correlate its activity with the POTs’ charge density.
10 Summary of POT charge densities of Keggin and Wells-Dawson POTs
In order to facilitate comparison of the inhibitory capacities of the Keggin and Wells-Dawson POT samples tested in our laboratory against AbPPO4 and to obtain a structure-activity correlation, the charge densities (anionic charge per W addenda atom) of the species present […]
the charge densities, the following stability windows for POTs can be identified:
1) intact closed clusters: q/m ≈ 0.33 – 0.50
Structures with higher charge densities were not analyzed. Structures with a q/m value lower than 0.33 are prone to hydrolysis or reduction under suitable conditions, both leading to an increase in charge density.
2) lacunary clusters: q/m = 0.35 – 0.45
Structures with lower charge densities were not analyzed. Structures with a q/m value higher than 0.45 achieve stabilization by taking up protons for charge compensation. However, too […]
these pathways result in a decrease in charge density.
Overall, the preferred stable charge densities at neutral pH of both the intact and lacunary POTs […]
for intact clusters. This seems to be an intrinsic POT property as a combined result of 1) the reactivity of lacunary oxygen sites and 2) the hydrolytic susceptibility to hydroxide anions in aqueous solution in competition with electrostatic repulsion with the anionic POT charge. […]
metal centers in their oxygen-bound environment.
The scenario is different when looking at the POT interaction with the enzyme AbPPO4. Among […]
values show a clear correlation to the q/m values, with the lowest charge density corresponding to the highest protein affinity. But going to the larger Wells-Dawson archetype, comparing the active lacunary species H [PVWVI O ]4- (Keggin) and H [α -PV WVI O ](10-x)- (x = 3 or 4) (Wells- […]
charge densities. As stated in the main text, the basic inhibition effect shown by the Wells- […]

Row | Substance | Charge density q/m of the anion (listed as H2[PV2WVI12O48]12-) | Charge density q/m of the anion (listed as H2[P^V2W^VI12O48]^12−) | Charge density q/m of the anion | Charge density q/m of POT product Hx[α2-P2W17O61](10−x)−, x = 3 | Charge density q/m of POT product Hx[α2-P2W17O61](10−x)−, x = 4 | Charge density q/m of the anion (listed as [PV2WVI15O56]12-) | Charge density q/m of the anion (listed as [P^V2W^VI15O56]^12−)
1 | (NH4)12[H2P^V2W^VI12O48]·24H2O [[P2W12]^12−] | 1.00 | 1 |  |  |  |  | 
2 | K6[α/β-P^V2W^VI18O62]·14H2O [[P2W18]^6−] |  |  | 0.33 | 0.41 | 0.35 |  | 
3 | K12[P^V2W^VI15O56]·24H2O [[P2W15]^12−] |  |  |  | 0.41 | 0.35 | 0.80 | 0.8
4 | K10[α2-P^V2W^VI17O61]·20H2O [[P2W17]^10−] |  |  | 0.59 | 0.41 | 0.35 |  | 
